Assay results: PubChem BioAssay AID248 (DTP/NCI, 2004)
Toxic doses and inconclusive results are not listed. No stated cut-off is given here; in the data, active means T/C of 150% or more; inactive means T/C below 125%.

Test system: L1210 leukemia ip in BDF1 mice, survival T/C
Assay: NCI In Vivo Anticancer Drug Screen. Data for tumor model L1210 Leukemia (intraperitoneal) in B6D2F1 (BDF1) mice
Conditions: endpoint: mean survival time, higher = longer survival
Summary of the method: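 Antitumor effect is assessed in tumor-bearing animals. Survival in the compound arm is compared with a vehicle-dosed control arm and expressed as their quotient.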

[1] = dose: 50.0 mg/kg/injection, schedule: Q01DX001 (ip), vehicle: saline
[2] = dose: 100.0 mg/kg/injection, schedule: Q01DX001 (ip), vehicle: saline
[3] = dose: 200.0 mg/kg/injection, schedule: Q01DX001 (ip), vehicle: saline
[4] = dose: 400.0 mg/kg/injection, schedule: Q01DX001 (ip), vehicle: saline
[5] = dose: 100.0 mg/kg/injection, schedule: Q01DX001 (ip), vehicle: Klucel (hydroxypropylcellulose) (HPC)
[6] = dose: 200.0 mg/kg/injection, schedule: Q01DX001 (ip), vehicle: Klucel (hydroxypropylcellulose) (HPC)
[7] = dose: 100.0 mg/kg/injection, schedule: Q04DX003 (ip), vehicle: saline with Tween-80
[8] = dose: 200.0 mg/kg/injection, schedule: Q04DX003 (ip), vehicle: saline with Tween-80
[9] = dose: 400.0 mg/kg/injection, schedule: Q04DX003 (ip), vehicle: saline with Tween-80
[10] = dose: 100.0 mg/kg/injection, schedule: Q01DX001 (ip), vehicle: carboxymethylcellulose (CMC)
[11] = dose: 200.0 mg/kg/injection, schedule: Q01DX001 (ip), vehicle: carboxymethylcellulose (CMC)
[12] = dose: 100.0 mg/kg/injection, schedule: Q01DX009 (ip), vehicle: Klucel (hydroxypropylcellulose) (HPC)
[13] = dose: 100.0 mg/kg/injection, schedule: Q04DX003 (ip), vehicle: Klucel (hydroxypropylcellulose) (HPC)
[14] = dose: 200.0 mg/kg/injection, schedule: Q01DX009 (ip), vehicle: Klucel (hydroxypropylcellulose) (HPC)
[15] = dose: 200.0 mg/kg/injection, schedule: Q04DX003 (ip), vehicle: Klucel (hydroxypropylcellulose) (HPC)
[16] = dose: 400.0 mg/kg/injection, schedule: Q01DX009 (ip), vehicle: Klucel (hydroxypropylcellulose) (HPC)
[17] = dose: 400.0 mg/kg/injection, schedule: Q04DX003 (ip), vehicle: Klucel (hydroxypropylcellulose) (HPC)

Measured: T/C

O=C(/C=C/c1ccccc1)c1ccc(N=Cc2ccccc2)cc1
inactive: [1] 94 % of control | [2] 94 % of control | [3] 90 % of control | [4] 105 % of control

c1ccc2c(c1)ccc1cc3c(ccc4ccccc43)cc12
inactive: dose: 25.0 mg/kg/injection, schedule: Q01DX001 (ip), vehicle: Klucel (hydroxypropylcellulose) (HPC) 106 % of control | dose: 50.0 mg/kg/injection, schedule: Q01DX001 (ip), vehicle: Klucel (hydroxypropylcellulose) (HPC) 109 % of control | [5] 108 % of control | [6] 108 % of control | dose: 400.0 mg/kg/injection, schedule: Q01DX001 (ip), vehicle: Klucel (hydroxypropylcellulose) (HPC) 109 % of control

CCNC(=O)Oc1cccc(NC(=O)OC)c1
inactive: [7] 104 % of control | [8] 93 % of control | [9] 95 % of control

Cc1cccn2c(=O)cc(Cl)nc12
inactive: [10] 96 % of control | [11] 98 % of control

c1ccc2[nH]c(/N=N/c3nc4ccccc4[nH]3)nc2c1
inactive: [12] 95 % of control | [13] 94 % of control | [14] 105 % of control | [15] 98 % of control | [16] 87 % of control | [17] 98 % of control

CCOC(=O)c1cc(N)c(N2CCCC2)cc1Cl
inactive: dose: 100.0 mg/kg/injection, schedule: Q01DX009 (ip), vehicle: saline with Tween-80 109 % of control | [7] 93 % of control | dose: 200.0 mg/kg/injection, schedule: Q01DX009 (ip), vehicle: saline with Tween-80 98 % of control | [8] 93 % of control | dose: 400.0 mg/kg/injection, schedule: Q01DX009 (ip), vehicle: saline with Tween-80 95 % of control | [9] 93 % of control

O=S(=O)(Nc1ccc2ccccc2c1)c1cccc2ccccc12
inactive: [13] 101 % of control | [15] 93 % of control | [17] 101 % of control

Cc1cc(N(CCO)CCO)c(C)cc1NC(=O)c1ccccc1
inactive: [10] 106 % of control | [11] 101 % of control | dose: 400.0 mg/kg/injection, schedule: Q01DX001 (ip), vehicle: carboxymethylcellulose (CMC) 94 % of control

CC1CCCCN1Cc1ccccc1COC(=O)c1ccc(Cl)cc1 (stereo not drawn)
inactive: [5] 98 % of control | [6] 107 % of control

CC1(C)N=C(N)N=C(N)N1c1ccc(CC(C(=O)Nc2cccc(S(=O)(=O)F)c2)c2ccccc2)cc1 (stereo not drawn)
inactive: dose: 25.0 mg/kg/injection, schedule: Q01DX001 (ip), vehicle: saline 105 % of control | [1] 106 % of control | dose: 87.5 mg/kg/injection, schedule: Q01DX001 (ip), vehicle: saline 94 % of control | [2] 97 % of control

SC1CC[N-]CC1.SC1CC[N-]CC1.[Cl][Pt+2][Cl]
inactive: dose: 25.0 mg/kg/injection, schedule: Q01DX009 (ip), vehicle: water 96 % of control | dose: 50.0 mg/kg/injection, schedule: Q01DX009 (ip), vehicle: water 101 % of control | dose: 100.0 mg/kg/injection, schedule: Q01DX009 (ip), vehicle: water 96 % of control | dose: 100.0 mg/kg/injection, schedule: Q04DX003 (ip), vehicle: water 101 % of control | dose: 200.0 mg/kg/injection, schedule: Q01DX009 (ip), vehicle: water 98 % of control | dose: 200.0 mg/kg/injection, schedule: Q04DX003 (ip), vehicle: water 97 % of control

O=C(Nc1ccccc1C(F)(F)F)OCCOc1ccc(-c2ccccc2)cc1
inactive: [12] 93 % of control | [14] 91 % of control | [16] 91 % of control

O=C1C(=O)C(c2ccccc2)Oc2ccccc21 (stereo not drawn)
inactive: [1] 89 % of control | [2] 101 % of control | [3] 98 % of control | [4] 95 % of control

C=CCN(Cc1cnc2nc(N)nc(N)c2n1)c1ccc(C(=O)NC(CCC(=O)O)C(=O)O)cc1 (stereo not drawn)
inactive: dose: 1.5 mg/kg/injection, schedule: Q01DX009 (ip), vehicle: sodium bicarbonate 108 % of control | dose: 3.0 mg/kg/injection, schedule: Q01DX009 (ip), vehicle: sodium bicarbonate 116 % of control | dose: 6.0 mg/kg/injection, schedule: Q01DX009 (ip), vehicle: sodium bicarbonate 118 % of control

CCOC(=O)CNc1ccc(C(F)(F)F)cc1
inactive: dose: 100.0 mg/kg/injection, schedule: Q04DX002 (ip), vehicle: Klucel (hydroxypropylcellulose) (HPC) 104 % of control | dose: 200.0 mg/kg/injection, schedule: Q04DX002 (ip), vehicle: Klucel (hydroxypropylcellulose) (HPC) 104 % of control | dose: 400.0 mg/kg/injection, schedule: Q04DX002 (ip), vehicle: Klucel (hydroxypropylcellulose) (HPC) 97 % of control

CN(C)CCOc1cccc(OCCN(C)C)n1
inactive: dose: 12.5 mg/kg/injection, schedule: Q01DX009 (ip), vehicle: saline with Tween-80 104 % of control | dose: 25.0 mg/kg/injection, schedule: Q01DX009 (ip), vehicle: saline with Tween-80 103 % of control | dose: 25.0 mg/kg/injection, schedule: Q04DX003 (ip), vehicle: saline with Tween-80 96 % of control | dose: 50.0 mg/kg/injection, schedule: Q01DX009 (ip), vehicle: saline with Tween-80 103 % of control | dose: 50.0 mg/kg/injection, schedule: Q04DX003 (ip), vehicle: saline with Tween-80 96 % of control | [7] 100 % of control

CSc1nc(N)nc2c1ncn2CCCl
inactive: dose: 100.0 mg/kg/injection, schedule: Q04DX003 (ip), vehicle: saline 103 % of control | dose: 200.0 mg/kg/injection, schedule: Q04DX003 (ip), vehicle: saline 96 % of control | dose: 400.0 mg/kg/injection, schedule: Q04DX003 (ip), vehicle: saline 97 % of control

Cc1ccc(NC(=O)Nc2ccccc2Cl)cc1
inactive: dose: 100.0 mg/kg/injection, schedule: Q01DX009 (ip), vehicle: gum acacia 86 % of control | dose: 100.0 mg/kg/injection, schedule: Q04DX003 (ip), vehicle: gum acacia 89 % of control | dose: 200.0 mg/kg/injection, schedule: Q01DX009 (ip), vehicle: gum acacia 94 % of control | dose: 200.0 mg/kg/injection, schedule: Q04DX003 (ip), vehicle: gum acacia 89 % of control | dose: 400.0 mg/kg/injection, schedule: Q01DX009 (ip), vehicle: gum acacia 94 % of control | dose: 400.0 mg/kg/injection, schedule: Q04DX003 (ip), vehicle: gum acacia 98 % of control

O=C(CC(=O)NO)NO
inactive: dose: 100.0 mg/kg/injection, schedule: Q04DX002 (ip), vehicle: saline with Tween-80 103 % of control | dose: 100.0 mg/kg/injection, schedule: Q04DX002 (ip), vehicle: saline 97 % of control | dose: 200.0 mg/kg/injection, schedule: Q04DX002 (ip), vehicle: saline with Tween-80 97 % of control | dose: 200.0 mg/kg/injection, schedule: Q04DX002 (ip), vehicle: saline 100 % of control | dose: 400.0 mg/kg/injection, schedule: Q04DX002 (ip), vehicle: saline with Tween-80 97 % of control | dose: 400.0 mg/kg/injection, schedule: Q04DX002 (ip), vehicle: saline 100 % of control
